One may read the IC50 as the concentration that inhibits the measured activity by half. The low end stands for greater potency, the high end for weaker potency.

The values that follow come from patent publication US9242987B2, “Heterocyclyl pyrazolopyrimidine analogues as JAK inhibitors” (Cellzome Limited, priority 2009, dated 2016).

SMILES strings stand for the structures. Some results are limits rather than exact numbers.

The target in assay [1] is T1, JAK2 (Homo sapiens, UniProt O60674).
T1 construct: endogenous in cells; host or cells: Mixed Molt4/Ramos lysate (1:2)
Description: Kinobeads assay, JAK2. Particulars: mixed Molt4/Ramos cell lysate, dot blot detection. Type of assay: binding. Put shortly:
(§1)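 Lysate from Molt4 and Ramos cells combined 1:2 at 10 mg/mL total protein met test compound and an aminopyrido-pyrimidine affinity matrix for 3 h in the cold. Captured JAK2 and JAK3, after elution, were measured by specific-antibody dot blot on an infrared system; dose-response curves yielded IC50.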

Assay [2] addresses T2, JAK3 (Homo sapiens, UniProt P52333).
T2 construct: endogenous in cells; host or cells: Mixed Molt4/Ramos lysate (1:2)
T2 sequence (P52333 1-1124): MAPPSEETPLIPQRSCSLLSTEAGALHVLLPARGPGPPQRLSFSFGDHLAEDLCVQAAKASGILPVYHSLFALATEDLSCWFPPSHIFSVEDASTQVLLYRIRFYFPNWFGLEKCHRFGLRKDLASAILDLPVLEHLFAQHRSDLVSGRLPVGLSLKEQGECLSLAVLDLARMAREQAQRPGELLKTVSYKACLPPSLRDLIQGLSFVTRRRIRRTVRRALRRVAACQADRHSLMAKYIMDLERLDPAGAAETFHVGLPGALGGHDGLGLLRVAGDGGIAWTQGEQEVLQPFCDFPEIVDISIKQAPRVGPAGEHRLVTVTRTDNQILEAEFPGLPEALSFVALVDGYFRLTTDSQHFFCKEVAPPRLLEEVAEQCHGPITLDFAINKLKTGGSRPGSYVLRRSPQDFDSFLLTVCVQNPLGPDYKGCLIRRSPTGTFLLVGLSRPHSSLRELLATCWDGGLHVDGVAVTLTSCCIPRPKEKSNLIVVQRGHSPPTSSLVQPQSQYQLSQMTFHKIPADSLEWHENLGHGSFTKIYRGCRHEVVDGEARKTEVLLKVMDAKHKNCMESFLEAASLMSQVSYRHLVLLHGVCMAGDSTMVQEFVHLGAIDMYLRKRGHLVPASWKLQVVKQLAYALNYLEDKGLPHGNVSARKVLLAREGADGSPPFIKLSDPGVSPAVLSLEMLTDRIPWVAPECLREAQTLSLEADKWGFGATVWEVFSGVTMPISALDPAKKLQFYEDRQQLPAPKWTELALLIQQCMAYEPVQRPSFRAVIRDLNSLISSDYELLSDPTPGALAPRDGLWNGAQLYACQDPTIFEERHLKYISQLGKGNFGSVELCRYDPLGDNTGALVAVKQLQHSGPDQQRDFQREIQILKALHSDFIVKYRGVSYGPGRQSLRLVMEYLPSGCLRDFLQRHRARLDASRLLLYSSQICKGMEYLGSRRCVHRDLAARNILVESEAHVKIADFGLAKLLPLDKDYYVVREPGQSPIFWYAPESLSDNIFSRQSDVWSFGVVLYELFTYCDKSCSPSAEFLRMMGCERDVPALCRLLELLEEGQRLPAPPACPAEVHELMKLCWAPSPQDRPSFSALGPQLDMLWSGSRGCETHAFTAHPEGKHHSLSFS
Description: Kinobeads assay, JAK3. Type of assay: binding. The note with it: mixed Molt4/Ramos cell lysate, dot blot detection. Put shortly:
as §1

T1 sequence (O60674 whole entry): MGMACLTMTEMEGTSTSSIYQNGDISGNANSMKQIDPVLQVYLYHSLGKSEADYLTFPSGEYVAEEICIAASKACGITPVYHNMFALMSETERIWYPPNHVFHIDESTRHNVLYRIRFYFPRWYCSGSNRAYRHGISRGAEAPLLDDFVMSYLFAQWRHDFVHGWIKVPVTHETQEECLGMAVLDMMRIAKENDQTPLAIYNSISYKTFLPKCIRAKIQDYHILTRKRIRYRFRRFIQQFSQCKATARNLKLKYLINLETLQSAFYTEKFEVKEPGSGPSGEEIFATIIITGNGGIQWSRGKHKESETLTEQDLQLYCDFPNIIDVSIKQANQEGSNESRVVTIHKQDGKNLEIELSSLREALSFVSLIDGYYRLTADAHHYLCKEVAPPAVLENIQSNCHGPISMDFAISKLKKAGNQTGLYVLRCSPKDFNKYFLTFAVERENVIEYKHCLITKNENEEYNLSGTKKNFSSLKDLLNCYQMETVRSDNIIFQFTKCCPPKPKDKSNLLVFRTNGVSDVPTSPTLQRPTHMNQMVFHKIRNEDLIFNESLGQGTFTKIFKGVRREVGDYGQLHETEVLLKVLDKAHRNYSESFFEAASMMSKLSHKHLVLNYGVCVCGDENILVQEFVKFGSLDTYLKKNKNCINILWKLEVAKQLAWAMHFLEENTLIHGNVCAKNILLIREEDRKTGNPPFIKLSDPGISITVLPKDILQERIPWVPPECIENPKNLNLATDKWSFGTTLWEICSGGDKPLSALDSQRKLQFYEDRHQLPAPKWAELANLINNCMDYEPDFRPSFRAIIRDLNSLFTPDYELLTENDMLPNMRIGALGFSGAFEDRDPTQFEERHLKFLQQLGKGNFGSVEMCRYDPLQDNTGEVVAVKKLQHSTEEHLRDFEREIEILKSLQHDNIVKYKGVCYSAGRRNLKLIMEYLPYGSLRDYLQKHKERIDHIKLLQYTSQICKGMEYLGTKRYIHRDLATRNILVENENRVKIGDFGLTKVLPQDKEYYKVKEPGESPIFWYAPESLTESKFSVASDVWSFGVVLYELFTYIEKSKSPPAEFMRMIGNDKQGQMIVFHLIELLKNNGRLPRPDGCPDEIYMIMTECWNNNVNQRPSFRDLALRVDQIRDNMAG

As to `COc1ccccc1Cn1ncc2cnc(Nc3cnn(C)c3)nc21` [Example 87, 1-(2-Methoxybenzyl)-N-(1-methyl-1H-pyrazol-4-yl)-1H-pyrazolo[3,4-d]pyrimidin-6-amine], the 50% inhibitory concentration (IC50) in assay [1] is 1000 to 10000 nM; in assay [2], less than 100 nM.

On to `Fc1ccccc1Cn1ncc2cnc(Nc3cn[nH]c3)nc21` [Example 88, 1-(2-Fluorobenzyl)-N-(1H-pyrazol-4-yl)-1H-pyrazolo[3,4-d]pyrimidin-6-amine], for which the half-inhibitory concentration (IC50) in assay [1] was 1000 to 10000 nM; in assay [2] it was less than 100 nM.

For `CC(O)Cn1cc(Nc2ncc3cnn(Cc4ccccc4F)c3n2)cn1` (centres unmarked) [Example 89, 1-(4-((1-(2-Fluorobenzyl)-1H-pyrazolo[3,4-d]pyrimidin-6-yl)amino)-1H-pyrazol-1-yl)propan-2-ol], the values for the IC50 in assay [1] and in assay [2] were 100 to 1000 nM and less than 100 nM, respectively.

Regarding `COc1cccc(F)c1Cn1ncc2cnc(Nc3cnn(C)c3)nc21` [Example 90, 1-(2-Fluoro-6-methoxybenzyl)-N-(1-methyl-1H-pyrazol-4-yl)-1H-pyrazolo[3,4-d]pyrimidin-6-amine], the IC50 in assay [1] is 100 to 1000 nM; in assay [2], less than 100 nM.

Regarding `COc1ccc(F)cc1Cn1ncc2cnc(Nc3cnn(C)c3)nc21` [Example 91, 1-(5-Fluoro-2-methoxybenzyl)-N-(1-methyl-1H-pyrazol-4-yl)-1H-pyrazolo[3,4-d]pyrimidin-6-amine], the half-inhibitory concentration (IC50) in assay [1] was 100 to 1000 nM; in assay [2] it was less than 100 nM.

For the compound `Cn1cc(Nc2ncc3cnn(Cc4ccccc4CO)c3n2)cn1` [Example 92, (2-((6-((1-Methyl-1H-pyrazol-4-yl)amino)-1H-pyrazolo[3,4-d]pyrimidin-1-yl)methyl)phenyl)methanol], the concentration for half-maximal inhibition (IC50) in assay [1] was 1000 to 10000 nM; in assay [2] it was less than 100 nM.

For the compound `COc1cccc(Cn2ncc3cnc(Nc4cnn(C)c4)nc32)c1F` [Example 93, 1-(2-Fluoro-3-methoxybenzyl)-N-(1-methyl-1H-pyrazol-4-yl)-1H-pyrazolo[3,4-d]pyrimidin-6-amine], the concentration for half-maximal inhibition (IC50) was not below 10000 nM in assay [1] and 100 to 1000 nM in assay [2].

For `COc1ccc(F)c(Cn2ncc3cnc(Nc4cnn(C)c4)nc32)c1` [Example 94, 1-(2-Fluoro-5-methoxybenzyl)-N-(1-methyl-1H-pyrazol-4-yl)-1H-pyrazolo[3,4-d]pyrimidin-6-amine], the half-inhibitory concentration (IC50) is 1000 to 10000 nM in assay [1] and less than 100 nM in assay [2].

With `CC(=O)n1cc(Nc2ncc3cnn(Cc4ccccc4F)c3n2)cn1` [Example 95, 1-(4-((1-(2-Fluorobenzyl)-1H-pyrazolo[3,4-d]pyrimidin-6-yl)amino)-1H-pyrazol-1-yl)ethanone], the 50% inhibitory concentration (IC50) in assay [1] was 1000 to 10000 nM; in assay [2], less than 100 nM.

Regarding `CS(=O)(=O)n1cc(Nc2ncc3cnn(Cc4ccccc4F)c3n2)cn1` [Example 96, 1-(2-Fluorobenzyl)-N-(1-(methylsulfonyl)-1H-pyrazol-4-yl)-1H-pyrazolo[3,4-d]pyrimidin-6-amine], the IC50 in assay [1] was not below 10000 nM; in assay [2] it was 100 to 1000 nM.

Consider `Fc1ccccc1Cn1ncc2cnc(Nc3c[nH]nc3Cl)nc21` [Example 97, N-(3-Chloro-1H-pyrazol-4-yl)-1-(2-fluorobenzyl)-1H-pyrazolo[3,4-d]pyrimidin-6-amine], for which the results for the IC50 in assay [1] and in assay [2] were not below 10000 nM and 100 to 1000 nM, respectively.

`Cn1cc(Nc2ncc3cnn(Cc4c(F)ccc(F)c4F)c3n2)cn1` [Example 98, N-(1-Methyl-1H-pyrazol-4-yl)-1-(2,3,6-trifluorobenzyl)-1H-pyrazolo[3,4-d]pyrimidin-6-amine]: the figures for the IC50 in assay [1] and in assay [2] were 100 to 1000 nM and less than 100 nM, respectively.

Turning to `Cn1cc(Nc2ncc3cnn(Cc4ccc(F)cc4)c3n2)cn1` [Example 99, 1-(4-Fluorobenzyl)-N-(1-methyl-1H-pyrazol-4-yl)-1H-pyrazolo[3,4-d]pyrimidin-6-amine], the values for the IC50 in assay [1] and in assay [2] were not below 10000 nM and 100 to 1000 nM, respectively.

Regarding `CC(C)c1cccc(Cn2ncc3cnc(Nc4cnn(C)c4)nc32)c1` [Example 100, 1-(3-Isopropylbenzyl)-N-(1-methyl-1H-pyrazol-4-yl)-1H-pyrazolo[3,4-d]pyrimidin-6-amine], the IC50 in assay [1] was not below 10000 nM; in assay [2] it was 100 to 1000 nM.

With `CC(C)c1ccccc1Cn1ncc2cnc(Nc3cnn(C)c3)nc21` [Example 101, 1-(2-Isopropylbenzyl)-N-(1-methyl-1H-pyrazol-4-yl)-1H-pyrazolo[3,4-d]pyrimidin-6-amine], the half-inhibitory concentration (IC50) in assay [1] lay in the range of 1000 to 10000 nM; in assay [2] it was 100 to 1000 nM.

Take `COCCOc1ccccc1Cn1ncc2cnc(Nc3cnn(C)c3)nc21` [Example 102, 1-(2-(2-Methoxyethoxy)benzyl)-N-(1-methyl-1H-pyrazol-4-yl)-1H-pyrazolo[3,4-d]pyrimidin-6-amine]: the half-maximal inhibitory concentration (IC50) in assay [1] fell in the range of 1000 to 10000 nM; in assay [2], 100 to 1000 nM.

Take `NC(=O)n1cc(Nc2ncc3cnn(Cc4ccccc4F)c3n2)cn1` [Example 103, 4-((1-(2-Fluorobenzyl)-1H-pyrazolo[3,4-d]pyrimidin-6-yl)amino)-1H-pyrazole-1-carboxamide]: the half-inhibitory concentration (IC50) lay in the range of 1000 to 10000 nM in assay [1] and 100 to 1000 nM in assay [2].

For `COc1cc(F)cc(Cn2ncc3cnc(Nc4cnn(C)c4)nc32)c1` [Example 104, 1-(3-Fluoro-5-methoxybenzyl)-N-(1-methyl-1H-pyrazol-4-yl)-1H-pyrazolo[3,4-d]pyrimidin-6-amine], the figures for the half-maximal inhibitory concentration (IC50) in assay [1] and in assay [2] were 100 to 1000 nM and less than 100 nM, respectively.

For the compound `COc1nn(C)cc1Nc1ncc2cnn(Cc3ccccc3)c2n1` [Example 105, 1-Benzyl-N-(3-methoxy-1-methyl-1H-pyrazol-4-yl)-1H-pyrazolo[3,4-d]pyrimidin-6-amine], the results for the half-inhibitory concentration (IC50) in assay [1] and in assay [2] were not below 10000 nM and less than 100 nM, respectively.

Regarding `COc1nn(CCO)cc1Nc1ncc2cnn(Cc3ccccc3)c2n1` [Example 106, 2-(4-((1-Benzyl-1H-pyrazolo[3,4-d]pyrimidin-6-yl)amino)-3-methoxy-1H-pyrazol-1-yl)ethanol], the values for the IC50 in assay [1] and in assay [2] were 1000 to 10000 nM and less than 100 nM, respectively.

`Cn1cc(Nc2ncc3cnn(Cc4cccc(C#N)c4F)c3n2)cn1` [Example 107, 2-Fluoro-3-((6-((1-methyl-1H-pyrazol-4-yl)amino)-1H-pyrazolo[3,4-d]pyrimidin-1-yl)methyl)benzonitrile]: the values for the 50% inhibitory concentration (IC50) in assay [1] and in assay [2] were 1000 to 10000 nM and less than 100 nM, respectively.

In the case of `Cn1cc(Nc2ncc3cnn(Cc4cccc(F)c4C#N)c3n2)cn1` [Example 108, 2-Fluoro-6-((6-((1-methyl-1H-pyrazol-4-yl)amino)-1H-pyrazolo[3,4-d]pyrimidin-1-yl)methyl)benzonitrile], the values for the IC50 in assay [1] and in assay [2] were 1000 to 10000 nM and 100 to 1000 nM, respectively.

`Cc1c(Nc2ncc3cnn(Cc4ccccc4)c3n2)cnn1C` [Example 109, 1-Benzyl-N-(1,5-dimethyl-1H-pyrazol-4-yl)-1H-pyrazolo[3,4-d]pyrimidin-6-amine]: the 50% inhibitory concentration (IC50) in assay [1] is not below 10000 nM; in assay [2], 100 to 1000 nM.

Turning to `Cc1nn(C)cc1Nc1ncc2cnn(Cc3ccccc3)c2n1` [Example 110, 1-Benzyl-N-(1,3-dimethyl-1H-pyrazol-4-yl)-1H-pyrazolo[3,4-d]pyrimidin-6-amine], the results for the IC50 in assay [1] and in assay [2] were not below 10000 nM and 100 to 1000 nM, respectively.

For `Cn1cc(Nc2ncc3cnn(Cc4ccccc4C4CC4)c3n2)cn1` [Example 111, 1-(2-Cyclopropylbenzyl)-N-(1-methyl-1H-pyrazol-4-yl)-1H-pyrazolo[3,4-d]pyrimidin-6-amine], the half-inhibitory concentration (IC50) in assay [1] was 1000 to 10000 nM; in assay [2], less than 100 nM.

On to `CC(C)(O)Cn1cc(Nc2ncc3cnn(Cc4ccccc4F)c3n2)cn1` [Example 112, 1-(4-((1-(2-Fluorobenzyl)-1H-pyrazolo[3,4-d]pyrimidin-6-yl)amino)-1H-pyrazol-1-yl)-2-methylpropan-2-ol], for which the 50% inhibitory concentration (IC50) in assay [1] is 1000 to 10000 nM; in assay [2], less than 100 nM.

With `Cc1nn(CCO)cc1Nc1ncc2cnn(Cc3ccccc3)c2n1` [Example 113, 2-(4-((1-Benzyl-1H-pyrazolo[3,4-d]pyrimidin-6-yl)amino)-3-methyl-1H-pyrazol-1-yl)ethanol], the concentration for half-maximal inhibition (IC50) was 1000 to 10000 nM in assay [1] and less than 100 nM in assay [2].

For `Cn1cc(Nc2ncc3cnn(Cc4ccccc4OCc4ccccc4)c3n2)cn1` [Example 114, 1-(2-(Benzyloxy)benzyl)-N-(1-methyl-1H-pyrazol-4-yl)-1H-pyrazolo[3,4-d]pyrimidin-6-amine], the 50% inhibitory concentration (IC50) was not below 10000 nM in assay [1] and 100 to 1000 nM in assay [2].
